Measurements: US20080031894A1, “Beta acid based protein kinase modulation cancer treatment” (Metaproteomics, LLC, priority 2006, published 2008)
Marks after values point to notes of the source that are not given here.

Legend:
adiponectin secretion [1] = test: Adiponectin secretion in LPS/3T3-L1 adipocytes; assay type: cell-based, murine; conditions: LPS 100 ng/ml; for adiponectin secretion, in words: any of the doses tested
IL-6 = test: Serum IL-6 in collagen induced arthritis murine model; assay type: in vivo, mouse; conditions: 10 mg/kg
adiponectin secretion [2] = test: Adiponectin secretion from insulin-resistant 3T3-L1 adipocytes; assay type: cell-based, murine
Description: 3T3-L1 cells were seeded at an initial density of 1×10^4 cells/cm^2 in 96-well plates. For two days, the cells were allowed grow to reach confluence. Following confluence, the cells were forced to differentiate into adipocytes by the addition of differentiation medium; this medium consisted of (1) 10% FBS/DMEM (high glucose); (2) 0.5 mM methylisobutylxanthine; (3) 0.5 μM dexamethasone and (4) 10 μg/ml insulin (MDI medium). From Day 3 through Day 5, the medium was changed to post-differentiation medium consisting of 10 μg/ml insulin in 10% FBS/DMEM.
Briefly, on Day 6, cells were maintained in serum-free media containing 0.5% bovine serum albumin (BSA) for three hours and then treated with 1 μg insulin/ml plus solvent or insulin plus test material. […] Twenty-four hours later, the supernatant medium was sampled for adiponectin determination.
(§1) Adiponectin Assay—The adiponectin secreted into the medium was quantified using the Mouse Adiponectin Quantikine® Immunoassay kit with no modifications (R&D Systems, Minneapolis, Minn.).
Statistical Calculations and Interpretation—All assays were preformed in duplicate. […] Differences between the doses were determined using the student's t-test without correction for multiple comparisons; the nominal five percent probability of a type I error was selected. […]

[3] = tested on: human PI3K-β, PI3K-γ, and PI3K-δ; test: Effect of hops components on PI3K activity (FIG. 3); assay type: biochemical; conditions: 50 μg/ml
Description: Additionally examined was an Acacia nilotica heartwood extract. All compounds were tested at 50 μg/ml. The results are presented graphically as FIG. 3.

[4] = Non-fasting serum glucose and insulin in db/db diabetic mice, three days; assay type: in vivo, mouse; conditions: three consecutive days by gavage
Description: The Model—Male, C57BLKS/J m^+/m^+ Lepr^db (db/db) mice were used to assess the potential of the test materials to reduce fasting serum glucose or insulin concentrations. This strain of mice is resistant to leptin by virtue of the absence of a functioning leptin receptor.
Testing Procedure—Test substances were administered daily by gavage in 0.2% Tween-80. Serum was collected from the retroorbital sinus before the initial dose and ninety minutes after the third and final dose. Non-fasting serum glucose was determined enzymatically by the mutarotase/glucose oxidase method and serum insulin was determined by a mouse specific ELISA.

PGE2 biosynthesis = PGE2 biosynthesis in A549 pulmonary epithelial cells stimulated by mite dust allergen; assay type: cell-based, human; conditions: 10 μg/ml, added 60 minutes prior to mite dust allergen
Source text: Mite dust allergen isolation—Dermatophagoides farinae is the American house dust mite. D. farinae were raised on a 1:1 ratio of Purina Laboratory Chow (Ralston Purina, Co, St. Louis, Mo.) and Fleischmann's granulated dry yeast (Standard Brands, Inc. New York, N.Y.) at room temperature and 75% humidity. Live mites were aspirated from the culture container as they migrated from the medium, killed by freezing, desiccated and stored at 0% humidity. The allergenic component of the mite dust was extracted with water at ambient temperature. Five-hundred mg of mite powder were added to 5 ml of water (1:10 w/v) in a 15 ml conical centrifuge tube (VWR, Rochester, N.Y.), shaken for one minute and allowed to stand overnight at ambient temperature. The next day, the aqueous phase was filtered using a 0.2 μm disposable syringe filter (Nalgene, Rochester, N.Y.). The filtrate was termed mite dust allergen and used to test for induction of PGE2 biosynthesis in A549 pulmonary epithelial cells.
Cell culture and treatment—The human airway epithelial cell line, A549 (American Type Culture Collection, Bethesda, Md.) was cultured and treated as previously described in Example 6. Mite allergen was added to the culture medium to achieve a final concentration of 1000 ng/ml. Eighteen hours later, the media were sampled for PGE2 determination.

adiponectin secretion [5] = test: Adiponectin secretion from TNFα-treated 3T3-L1 adipocytes; assay type: cell-based, murine; conditions: for maximum increase of adiponectin secretion from the TNFα control: 10 ng/ml TNFα
Description: 3T3-L1 cells were seeded at an initial density of 1×10^4 cells/cm^2 in 96-well plates. For two days, the cells were allowed grow to reach confluence. Following confluence, the cells were forced to differentiate into adipocytes by the addition of differentiation medium; this medium consisted of (1) 10% FBS/DMEM (high glucose); (2) 0.5 mM methylisobutylxanthine; (3) 0.5 μM dexamethasone and (4) 10 μg/ml insulin (MDI medium). From Day 3 through Day 5, the medium was changed to post-differentiation medium consisting of 10% FBS in DMEM. […] On Day 6, the supernatant medium was sampled for adiponectin determination.
as §1
Statistical Calculations and Interpretation—All assays were preformed in duplicate. […] Differences among the doses and test agents were determined using the Student's t-test without correction for multiple comparisons; the nominal five percent probability of a type I error was selected.

CC(C)Cc1ccc(C(C)C(=O)O)cc1 (stereo not drawn) [ibuprofen]
Maximum adiponectin stimulation (adiponectin secretion [1]; 0.625 μg/ml): 22%

C[C@]12C=CC(=O)C=C1CC[C@@H]1[C@@H]2[C@@H](O)C[C@@]2(C)[C@H]1CC[C@]2(O)C(=O)CO [prednisolone]
serum IL-6 levels, in words (IL-6): reached a statistical significance

CC(C)CCC1=C(O)C(C(=O)C(C)C)=C(O)C(CCC(C)C)(CCC(C)C)C1=O [hexahydrocolupulone]
concentration required for half maximal adiponectin secretion (adiponectin secretion [2]; Hofstee plot slope): 3.2 µg/mL

COc1cc(O)c(CC=C(C)C)c(O)c1C(=O)/C=C/c1ccc(O)cc1 [xanthohumol]
PI3K isoform effect, in words [3]: more inhibitory to PI3K-γ than to PI3K-β or PI3K-δ
serum glucose, in words [4]: reduction in serum glucose
serum insulin, in words [4]: no effect on insulin

Beta acids
Percent PGE2 Inhibition (PGE2 biosynthesis): 83%

CCc1ccc(CCOc2ccc(CC3SC(=O)NC3=O)cc2)nc1 (stereo not drawn) [Pioglitazone]
Adiponectin Index (relative maximum) (adiponectin secretion [5]; 10 ng TNFα/ml, [Adiponectin]Test/[Adiponectin]TNFα control): 1.47
maximum increase of adiponectin secretion from the TNFα control (adiponectin secretion [5]): 80%
Adiponectin Index Observed (adiponectin secretion [5]; 1.0 μg/ml, indexed to TNFα control (Table 26)): 1.80
Maximum adiponectin stimulation (adiponectin secretion [1]; […]): 12%

CC(=O)Oc1ccccc1C(=O)O [Aspirin]
adiponectin secretion, in words (adiponectin secretion [1]): failed to induce adiponectin secretion

O=C(O)c1ccccc1O [salicylic acid]
adiponectin secretion, in words (adiponectin secretion [1]): failed to induce adiponectin secretion

COc1ccc2c(c1)c(CC(=O)O)c(C)n2C(=O)c1ccc(Cl)cc1 [Indomethacin]
Maximum adiponectin stimulation (adiponectin secretion [1]; […]): 9%

Cc1c(C)c2c(c(C)c1O)CCC(C)(COc1ccc(CC3SC(=O)NC3=O)cc1)O2 (stereo not drawn) [Troglitazone]
maximum increase of adiponectin secretion from the TNFα control (adiponectin secretion [5]): 51%
Maximum adiponectin stimulation (adiponectin secretion [1]; 0.625 μg/ml): 15%

CN(C)C(=N)N=C(N)N [metformin]
serum glucose, in words [4]: decreased

CC(C)CCC1=C(O)C(C(=O)C(C)C)=C(O)C(CCC(C)C)(CCC(C)C)C1=O [Hexahydro-colupulone (HHCL)]
Adiponectin/IL-6 (adiponectin secretion [2]; 50.0 μg/ml, ratio of indexes (Table 21)): 0.60#
